MIC, MBC and Activity data for two compounds are collected here from ChEMBL document CHEMBL5385959, “Trifluoroacetic acid-mediated synthesis of xanthene constructs and their extensive anti-tuberculosis evaluation” (RSC Med Chem, 2024).

Converted amounts (≈) assume the structure as drawn. The source made the active and inactive calls. Bounds are passed on as bounds.

Data set [1] has as its system Mycobacterium tuberculosis. The data set can be described thus: Antibacterial activity against Mycobacterium tuberculosis H37Ra assessed as reduction in bacterial growth incubated for 14 days by CLSI protocol based method. Format: functional. The settings on record: 336 h, time 14 day.
Data set [2] has as its system Mycobacterium tuberculosis. The data set can be described thus: Antibacterial activity against Mycobacterium tuberculosis H37Rv assessed as reduction in bacterial growth incubated for 14 days by CLSI protocol based method. Format: functional. The settings on record: 336 h, time 14 day.
Data set [3] has as its system Mycobacterium tuberculosis. The data set can be described thus: Bactericidal activity Mycobacterium tuberculosis assessed as reduction in bacterial growth incubated for 28 days by broth microdilution method. The data set is classed as functional. The settings on record: 672 h, time 28 day. On the technique in general: Broth dilution looks for growth in wells or tubes with falling amounts of substance.

In data set [4] the test system is Pseudomonas aeruginosa. The data set can be described thus: Antibacterial activity against Pseudomonas aeruginosa assessed as reduction in bacterial growth incubated for 24 hrs by broth dilution method. The data set is classed as functional.
Data set [5] concerns Escherichia coli. In words: Antibacterial activity against Escherichia coli assessed as reduction in bacterial growth incubated for 24 hrs by broth dilution method. Format: functional.
The subject of data set [6] is Bacillus subtilis. In words: Antibacterial activity against Bacillus subtilis assessed as reduction in bacterial growth incubated for 24 hrs by broth dilution method. The data set is classed as functional.
Data set [7] has as its system Mycobacterium tuberculosis. In words: Antibacterial activity against Mycobacterium tuberculosis H37Rv assessed as reduction in bacterial growth by broth microdilution method. The data set is classed as functional.
Data set [8] has as its system Mycobacterium tuberculosis. The data set can be described thus: Synergistic antibacterial activity against Mycobacterium tuberculosis H37Rv assessed as isoniazid MIC by broth microdilution method. The data set is classed as functional.
Data set [9] relates to Mycobacterium tuberculosis. The data set can be described thus: Synergistic antibacterial activity against Mycobacterium tuberculosis H37Rv assessed as ethambutol MIC by broth microdilution method. Format: functional.
The subject of data set [10] is Mycobacterium tuberculosis. The data set can be described thus: Synergistic antibacterial activity against Mycobacterium tuberculosis H37Rv assessed as rifampicin MIC by broth microdilution method. Format: functional.
Data set [11] concerns Mycobacterium tuberculosis. In words: Synergistic antibacterial activity against Mycobacterium tuberculosis H37Rv assessed as reduction in microbial growth in presence of rifampicin by broth microdilution method. The data set is classed as functional.
The subject of data set [12] is Mycobacterium tuberculosis. In words: Synergistic antibacterial activity against Mycobacterium tuberculosis H37Rv assessed as reduction in microbial growth in presence of isoniazid by broth microdilution method. Format: functional.
Data set [13] has as its system Mycobacterium tuberculosis. In words: Synergistic antibacterial activity against Mycobacterium tuberculosis H37Rv assessed as reduction in microbial growth in presence of ethambutol by broth microdilution method. The data set is classed as functional.
Data set [14] relates to Mycobacterium tuberculosis. In words: Bactericidal activity Mycobacterium tuberculosis H37Rv assessed as reduction in bacterial growth incubated for 2 days by time kill assay. The data set is classed as functional. The settings on record: 48 h, time 2 day.
Data set [15] concerns Mycobacterium tuberculosis. The data set can be described thus: Bactericidal activity Mycobacterium tuberculosis H37Rv assessed as log reduction in CFU incubated for 2 days by time kill assay. The settings on record: time 2 day. Format: functional.
The test system of data set [16] is Mycobacterium tuberculosis. The data set can be described thus: Bactericidal activity Mycobacterium tuberculosis H37Rv by time kill assay. The data set is classed as functional, organism-based. The settings on record: time 16.0 day.
The subject of data set [17] is Mycobacterium tuberculosis. In words: Bactericidal activity Mycobacterium tuberculosis H37Rv assessed as log reduction in CFU at 16 times MIC incubated for 8 days by time kill assay. Format: functional. The settings on record: time 8 day.
Data set [18] concerns Mycobacterium tuberculosis. In words: Bactericidal activity Mycobacterium tuberculosis H37Rv assessed as log reduction in CFU at 16 times MIC incubated for 2 to 6 days by time kill assay. Format: functional. The settings on record: time 2-6 day.
For data set [19], the system named is Mycobacterium tuberculosis. The data set can be described thus: Antibacterial activity against GFP-tagged Mycobacterium tuberculosis H37Rv assessed as reduction in GFP expression at half times MIC incubated for 7 days by confocal microscopic analysis. Format: functional, organism-based. The settings on record: time 7.0 day.
Data set [20] relates to HEK293. In words: Cytotoxicity against HEK293 cells assessed as reduction in cell viability at 100 uM incubated for 48 hrs by MTT assay. The data set is classed as toxicity, cell-based. The settings on record: human, hek293, 48 h.
Data set [21] is described as follows: Cytotoxicity against mouse RAW 264 cells assessed as reduction in cell viability at 150 uM incubated for 48 hrs by MTT assay. The data set is classed as functional.
The test system of data set [22] is A549. The data set can be described thus: Cytotoxicity against human A549 cells assessed as reduction in cell viability at 200 uM incubated for 48 hrs by MTT assay. The data set is classed as functional. (In general: Tetrazolium dyes change colour on reduction, which living cells bring about.)
Data set [23] concerns Mycobacterium tuberculosis. The data set can be described thus: Bactericidal activity Mycobacterium tuberculosis H37Rv incubated for 2 days by time kill assay. Format: functional, organism-based. The settings on record: time 2.0 day.
The test system of data set [24] is Mycobacterium tuberculosis. In words: Bactericidal activity Mycobacterium tuberculosis H37Rv incubated for 15 days by time kill assay. Format: functional, organism-based. The settings on record: time 15.0 day.
For data set [25], the system named is Mycobacterium tuberculosis. In words: Bactericidal activity Mycobacterium tuberculosis H37Rv assessed as log reduction in CFU at 2 times MIC incubated for 2 days by time kill assay. The data set is classed as functional. The settings on record: time 2 day.
Data set [26] has as its system Mycobacterium tuberculosis. In words: Bactericidal activity Mycobacterium tuberculosis H37Rv assessed as log reduction in CFU at 2 times MIC incubated for 5 to 10 days by time kill assay. The data set is classed as functional, organism-based. The settings on record: time 5-10 day.
Data set [27] concerns Mycobacterium tuberculosis. The data set can be described thus: Bactericidal activity Mycobacterium tuberculosis H37Rv at 4 times MIC incubated for 7 days by time kill assay. Format: functional, organism-based. The settings on record: time 7.0 day.
Data set [28] has as its system Mycobacterium tuberculosis. The data set can be described thus: Synergistic antibacterial activity against Mycobacterium tuberculosis H37Rv assessed as log reduction in CFU measured for 2 days in presence of isoniazid by time kill assay. Format: functional. The settings on record: time 2 day.
The test system of data set [29] is Mycobacterium tuberculosis. The data set can be described thus: Synergistic antibacterial activity against Mycobacterium tuberculosis H37Rv assessed as log reduction in CFU measured for 4 days in presence of isoniazid by time kill assay. The settings on record: time 4 day. The data set is classed as functional.

For `COc1cccc(C2C3=C(CCCC3=O)OC3=C2C(=O)CCC3)c1`, the minimum inhibitory concentration (MIC) in data set [1] is 8 µg/mL (≈ 24.7 µM); in [2] it was 8 µg/mL (≈ 24.7 µM); in data set [4], greater than 128 µg/mL; in [5] it was greater than 128 µg/mL; in data set [6] it was greater than 128 µg/mL; in data set [7] it was 8 µg/mL (≈ 24.7 µM). For the same compound, the minimum inhibitory concentration (MIC) worked out at 0.078 µg/mL in [8]; 0.312 µg/mL in [9]; 0.009 µg/mL in data set [10]; 0.5 µg/mL in data set [11]; 0.25 µg/mL in data set [12]; 0.25 µg/mL in data set [13]. In [14], the MIC is 8 µg/mL (≈ 24.7 µM). The MBC in data set [3] worked out at 8 µg/mL (≈ 24.7 µM). Moreover, the Activity was greater than 2 log10CFU in [15]; “Dose-Dependent Effect” in data set [16]; 5 log10CFU in data set [17]; 2 log10CFU in data set [18]; greater than 75% in [20]; greater than 75% in [21]. The Activity in [22] was greater than 75%. For the same compound, the result in [19] was Active.

Consider `CC1(C)CC(=O)C2=C(C1)OC1=C(C(=O)CC(C)(C)C1)C2c1ccccc1`, for which the MIC in [1] is 8 µg/mL (≈ 22.8 µM); in data set [2], 8 µg/mL (≈ 22.8 µM); in data set [4], greater than 128 µg/mL; in data set [5] it was greater than 128 µg/mL; in data set [6], greater than 128 µg/mL; in data set [7] it was 8 µg/mL (≈ 22.8 µM). The MIC in [8] was 0.078 µg/mL; in data set [9] it was 0.312 µg/mL; in data set [10] it was 0.009 µg/mL; in data set [11], 0.009 µg/mL; in data set [12], 0.078 µg/mL; in data set [13], 0.25 µg/mL. Also, in [14], the MIC was 8 µg/mL (≈ 22.8 µM). Also, the minimal bactericidal concentration (MBC) in data set [3] is 8 µg/mL (≈ 22.8 µM). The result in [23], in data set [26], in data set [27] and in data set [19] was Active. The result in data set [24] was inactive. Further, the Activity in data set [25] is 3 log10CFU; in [28], 2 log10CFU; in [29], 1 log10CFU; in [20], greater than 75%; in [21], greater than 75%; in data set [22] it was greater than 75%.

One may read the MIC as the smallest concentration in the dilution series that meets the test's criterion for growth inhibition. Usually MBC stands for the smallest concentration meeting the test's criterion for killing.
